What all share (assay type): cell-based
The subject of assay [1] is S. mutans (ATCC 25175). Put plainly: Determination of the minimum inhibitory concentration (MIC). Conditions: Streptococcus mutans, ATCC25175; for MIC: against S. Mutans. As for the experimental part: A colony of bacterium taken from agar plate is inoculated in Brain Hearth Infusion medium (BHI) and grown overnight at 37° C. The next day, the bacteria are diluted in fresh medium containing the phenol red indicator, up to a density of 10^6 bacteria/mL.
A stock solution of 2 mg/mL of compound is prepared in BHI medium containing phenol red.
In a 96-well plate, the compound stock solution is diluted serially (the concentration is halved at each step) to obtain the following final concentrations after addition of the bacteria suspension: 1 mg/mL; 0.5 mg/mL; 0.25 mg/mL; 0.125 mg/mL; 0.065 mg/mL; 0.032 mg/mL; 0.016 mg/mL; 0.008 mg/mL; 0.004 mg/mL; 0.002 mg/mL; 0.001 mg/mL. A compound-free medium is used as a growth control. A volume of bacterial suspension equal to 0.5*10^6 bacteria/mL is added to each well containing the compound and the control. The dish is incubated at 37° C. for 24 hours. Bacterial growth in each well is detected by the phenol red, which turns from red to yellow following acidification of the medium induced by bacterial metabolism. The lowest concentration of the compound causing no evident color change corresponds to the MIC.
(§1) In order to test the antibacterial properties of the compounds prepared in Examples 1-8, on colonies of S. mutans (ATCC 25175), a bacterium commonly found in the human oral cavity, a test was set up to determine the minimum inhibitory concentration (MIC) and the minimum bactericidal concentration (MBC) according to the “Determination of minimum inhibitory concentration (MIC)” methods and “Determination of minimum bactericidal concentration (MBC)” described above.

Assay [2] has as its system S. mutans (ATCC 25175). Put plainly: Determination of the minimum bactericidal concentration (MBC). Conditions: Streptococcus mutans, ATCC25175; against S. Mutans. As to the method:
(§2) A 20 mg/mL compound stock solution in BHI medium is prepared. In a 96-well plate, the compound solution is diluted serially (the concentration is halved at each step) to obtain the following final concentrations after addition of the bacteria suspension: 10 mg/mL; 5 mg/mL; 2.5 mg/mL; 1.25 mg/mL; 0.625 mg/mL; 0.31 mg/mL; 0.15 mg/mL; 0.08 mg/mL; 0.04 mg/mL; 0.02 mg/mL. Wells containing a mixture of penicillin and streptomycin antibiotics are used as a positive control. Compound-free medium is used as a growth control. A volume of bacterial suspension equal to 0.5*10^6 bacteria/mL is added to each well containing the compound and the controls. The dish is incubated at 37° C. for 24 hours. The lowest compound concentration at which no turbidity of the culture medium is evident is defined as MIC. For the calculation of MBC, aliquots equal to 50 μL are taken from the wells showing evident no turbidity of the medium and are plated on BHI agar plates for 48 hours. […] Bacterial suspensions taken from the positive control (growth medium only) and the negative control (growth medium with Ampicilin 100 μg/mL) are also seeded.
as §1

Assay [3] concerns S. mutans bacterial suspension (ATCC 25175). Put plainly: Direct contact test (DCT) in bonding resin R2. As to the method: The DCT test is based on the turbidimetric determination of bacterial growth in 96-well microplates.
On the wall of each well, 15 μL of the resin to be tested are polymerized for 40 s, using a VALO® Grand LED curing light (Ultradent, Milan, Italy) in standard mode (1000 mW/cm^2, 2 maximum of emission in the ranges of wavelengths 395-415 nm and 440-480 nm);
In this way the side walls of the wells are coated with the polymerized material under test. The wells are then washed with phosphate buffered saline (PBS) before inoculating them with bacteria. Keeping the plate in vertical position, 10 μL of S. mutans bacterial suspension (ATCC 25175) in brain heart infusion medium (BHI) from an o/n culture, is then deposited on the layer of material present on the side walls of the wells. The plate is held upright for 1 hour to allow direct contact between bacteria and the cured material. 200 μL culture broth is then added to each of the wells with gentle mixing. The microplate is then placed in the chamber of a spectrophotometer for ELISA plates reading at 37° C. and the optical density in each well is measured at 600 nm at regular intervals (every 30 minutes for 18 hours). The whole experiment is conducted under aseptic conditions and is repeated on three microplates to ensure reproducibility of the result. 24 wells for each microplate were tested for each sample.
The bactericidal properties of the compounds according to Examples 1, 5, 6 and 7 within a reference bonding resin called R2 were tested using the “Direct contact test (DCT)” method described above. As a negative reference, the reference bonding resin was used without adding compounds according to the invention.
The reference resin called R2 has the following composition (% by weight): • 70% Bis-GMA (bisphenol A glycidyl dimethacrylate, CAS 1565-94-2, Sigma-Aldrich); • 28.75% TEGDMA (triethylene glycol dimethacrylate, CAS 109-16-0, Sigma-Aldrich); • 0.25% CQ (Camphorquinone, CAS 10373-78-1, Sigma-Aldrich); • 1% EDMAD (ethyl-4-dimethylamino benzoate, CAS 10287-53-3, Sigma-Aldrich) and was diluted with 20% by weight of EtOH for use.
For the tests execution, different quantities of the compounds according to examples 1, 5, 6 and 7 were added to the resin R2 in a quantity range from 0.1 to 10% by weight. The homogeneity of the material to be tested was ensured before application in the wells by carrying out a sonication (50%, 5 min) and mixing with Vortex (800 rpm, 5 min) of the various resins added with the compound according to the invention.

The subject of a further assay is E. coli (ATCC25922). Put plainly: Determination of the minimum bactericidal concentration (MBC). As to the method: as §2
(§3) The compounds according to Examples 1, 3, 5, 6, and 7 were tested on bacterial strains different from S. mutans with the same methods described above, obtaining the MIC and MBC values reported in Table 2.

The test system of a further assay is S. Sanguis (ATCC 10556). The description is as above. As to the method:
as §2, §3

The subject of another assay is S. Mitis (ATCC 49456). The assay is described as above. As for the experimental part:
as §2, §3

The next assay relates to S. Aureus (ATCC 25923). The assay is described as above. As for the experimental part:
as §2, §3

Experimental findings from patent US20220402872A1, “PHOTOPOLYMERIZABLE ANTIBACTERIAL MONOMER” (UNIVERSITA' DEGLI STUDI DI TRIESTE, priority 2019, published 2022) are described below.

Structures are written as SMILES.

As a reminder, the MIC is the least concentration at which growth counts as inhibited. A low value points to inhibition by little substance. What is called MBC is the smallest concentration meeting the test's criterion for killing. A high value points to weaker bactericidal potency. `C=C(C)C(=O)OCC[N+](CC)(CC)CCCCCCCCCCCC[N+](CC)(CC)CCOC(=O)C(=C)C.[Br-].[Br-]` [Example 5] displayed an MIC against S. mutans (ATCC 25175) [1] of 10 to 20 µg/mL. Also, the minimal bactericidal concentration (MBC) against S. mutans (ATCC 25175) [2] is 20 µg/mL. Also, the “inhibition of bacterial survival by contact (optical density)” value (shortened to “inhibition of bacterial survival”) in assay [3] (1% by weight in resin R2) is “able to inhibit bacterial survival by contact”. Also, the MCB in the assay on E. coli (ATCC25922) stood at 0.156 mg/mL; in the assay on S. Sanguis (ATCC 10556) it was 0.039 mg/mL; in the assay with S. Mitis (ATCC 49456), 0.039 mg/mL; with S. Aureus (ATCC 25923) it was 0.039 mg/mL.
For `C=C(C)C(=O)NCc1cc[n+](CCCCCCCCCCCC[n+]2ccc(CNC(=O)C(=C)C)cc2)cc1.[Br-].[Br-]` [Example 7], the MIC in the assay with S. mutans (ATCC 25175) [1] was 2.5 µg/mL. Also, the minimum bactericidal concentration (MBC) against S. mutans (ATCC 25175) [2] came to 2.5 µg/mL. Further, the “inhibition of bacterial survival” value in assay [3] (1% by weight in resin R2) is given as “able to inhibit bacterial survival by contact”. In addition, the MCB in the assay with E. coli (ATCC25922) came out at 0.0025 mg/mL; with S. Sanguis (ATCC 10556), 0.02 mg/mL; with S. Mitis (ATCC 49456), 0.02 mg/mL; in the assay with S. Aureus (ATCC 25923) it was 0.005 mg/mL.
In the case of `C=C(C)C(=O)Nc1ccc([N+](C)(C)CCCCCCCCCCCC[N+](C)(C)c2ccc(NC(=O)C(C)=O)cc2)cc1.[Br-].[Br-]` [Example 6], inhibition of growth against S. mutans (ATCC 25175) [1] (MIC) required 5 µg/mL. Also, the MBC was 5 to 10 µg/mL in the assay on S. mutans (ATCC 25175) [1] (against the analyzed bacteria strains) and 10 µg/mL against S. mutans (ATCC 25175) [2]. In assay [3] (0.5% by weight in resin R2), the “inhibition of bacterial survival” value is listed as “able to inhibit bacterial survival by contact”. Moreover, the MCB in the assay with E. coli (ATCC25922) was determined as 0.002 mg/mL; with S. Sanguis (ATCC 10556) it was 0.005 mg/mL; in the assay with S. Mitis (ATCC 49456), 0.01 mg/mL; in the assay with S. Aureus (ATCC 25923) it was 0.01 mg/mL.
Regarding `C=C(C)C(=O)OCC[N+](C)(C)CCCCCCCCCCCC[N+](C)(C)CCOC(=O)C(=C)C.[Br-].[Br-]` [Example 1], the MIC against S. mutans (ATCC 25175) [1] was determined as 150 µg/mL. The minimal bactericidal concentration (MBC) with S. mutans (ATCC 25175) [2] was 300 µg/mL. In assay [3] (1% by weight in resin R2), the “inhibition of bacterial survival” value is recorded as “able to inhibit bacterial survival by contact”. For the same compound, the MCB in the assay with E. coli (ATCC25922) came out at 0.625 mg/mL; in the assay on S. Sanguis (ATCC 10556), 0.62 mg/mL; with S. Mitis (ATCC 49456), 0.62 mg/mL; with S. Aureus (ATCC 25923), 0.156 mg/mL.
